# pIC50: −log10 of the molar value.
# Target: T1, Tyrosine-protein kinase JAK3 [512-1124] (Homo sapiens, UniProt P52333)
# T1 construct: 512-1124
# T1 sequence (P52333 whole entry): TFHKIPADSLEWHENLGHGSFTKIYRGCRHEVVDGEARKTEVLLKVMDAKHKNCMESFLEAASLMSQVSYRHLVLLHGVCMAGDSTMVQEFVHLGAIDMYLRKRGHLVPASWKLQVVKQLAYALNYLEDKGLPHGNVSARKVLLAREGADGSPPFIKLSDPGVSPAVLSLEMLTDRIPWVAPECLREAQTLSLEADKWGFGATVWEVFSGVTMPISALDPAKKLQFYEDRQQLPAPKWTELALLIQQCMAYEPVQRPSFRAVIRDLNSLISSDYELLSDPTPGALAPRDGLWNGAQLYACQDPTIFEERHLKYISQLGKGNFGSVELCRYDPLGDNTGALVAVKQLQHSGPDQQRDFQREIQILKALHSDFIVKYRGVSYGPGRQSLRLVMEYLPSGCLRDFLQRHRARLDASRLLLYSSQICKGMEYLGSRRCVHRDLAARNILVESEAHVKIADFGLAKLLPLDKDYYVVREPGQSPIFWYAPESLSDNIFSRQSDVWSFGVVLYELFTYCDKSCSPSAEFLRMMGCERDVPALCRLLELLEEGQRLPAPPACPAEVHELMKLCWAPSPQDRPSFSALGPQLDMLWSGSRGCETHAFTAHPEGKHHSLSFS
# Assay: Enzymatic Inhibition Assay
# Excerpt: LC/MS grade water and acetonitrile (ACN), were purchased from HoneyWell, Burdick & Jackson (Muskegon, Mich., USA).
row,SMILES,pIC50
1,"N#CCC1CCC(n2c(CC(=O)NC3CCOCC3)nc3cnc4[nH]ccc4c32)CC1 (stereo unspecified) [US11066406, Ex. 5]",7.64
2,"N#CCC1CCC(n2c(CC(=O)Nc3cc[nH]n3)nc3cnc4[nH]ccc4c32)CC1 (stereo unspecified) [US11066406, Ex. 11]",7.52
3,"N#CCC1CCC(n2c(CC(=O)NCC3(O)CC3)nc3cnc4[nH]ccc4c32)CC1 (stereo unspecified) [US11066406, Ex. 12]",7.00
4,"Cn1cc(NC(=O)Cc2nc3cnc4[nH]ccc4c3n2C2CCC(CC#N)CC2)cn1 (stereo unspecified) [US11066406, Ex. 9]",7.10
5,"N#CCC1(n2c(CC(=O)NCC3CCOCC3)nc3cnc4[nH]ccc4c32)CCCCC1 [US11066406, Ex. 6]",7.55
6,"N#CCC1CCC(n2c(CC(=O)NCC3(O)CCC3)nc3cnc4[nH]ccc4c32)CC1 (stereo unspecified) [US11066406, Ex. 8]",7.12
7,"N#CCCNC(=O)Cc1nc2cnc3[nH]ccc3c2n1C1CCC(CC#N)CC1 (stereo unspecified) [US11066406, Ex. 4]",7.02
8,"N#CCC1CCC(n2c(CC(=O)NC34CCC(CC#N)(CC3)C4)nc3cnc4[nH]ccc4c32)CC1 (stereo unspecified) [US11066406, Ex. 10]",7.06
9,"N#CC[C@H]1CC[C@H](n2c(CC(=O)NCC3CC3)nc3cnc4[nH]ccc4c32)CC1 [US11066406, Ex. 3]",7.08
10,"CC(C)(O)CNC(=O)Cc1nc2cnc3[nH]ccc3c2n1C1CCC(CC#N)CC1 (stereo unspecified) [US11066406, Ex. 1]",7.04
11,"CC(C)(C#N)CNC(=O)Cc1nc2cnc3[nH]ccc3c2n1C1CCC(CC#N)CC1 (stereo unspecified) [US11066406, Ex. 7]",7.01
